From patent publication US8652997B2, “Active compound combinations” (Bayer CropScience AG, priority 2009, dated 2014) come the findings set out here.

Where two headings read alike, the source gives them in different places.

Type in all cases: in vivo
Assay [1] has as its system Fusarium nivale (var. majus). The assay is described as follows: Fusarium nivale (var. majus)-test (wheat)/preventive. Conditions: preventive spray, evaluated 5 days after inoculation. As to the method: Fusarium nivale (Var. majus)-Test (Wheat)/Preventive
(§1) Solvent: 49 parts by weight of n,n-dimethylacetamid
(§2) Emulsifier: 1 part by weight of alkylaryl polyglycol ether
(§3) To produce a suitable preparation of active compound, 1 part by weight of active compound or active compound combination is mixed with the stated amounts of solvent and emulsifier, and the concentrate is diluted with water to the desired concentration.
(§4) To test for preventive activity, young plants are sprayed with the preparation of active compound or active compound combination at the stated rate of application.
After the spray coating has been dried, the plants are slightly injured by using a sandblast and afterwards they are sprayed with a conidia suspension of Fusarium nivale (var. majus).
The plants are placed in the greenhouse under a translucent incubation cabinet at a temperature of approximately 10° C. and a relative atmospheric humidity of approximately 100%.
The test is evaluated 5 days after the inoculation. 0% means an efficacy which corresponds to that of the control, while an efficacy of 100% means that no disease is observed.

In assay [2] the test system is larvae of the diamondback moth (Plutella xylostella). As to the kind of experiment: Plutella xylostella test (sprayed cabbage leaves). As to the method:
(§5) Solvent: 7 parts by weight of dimethylformamide
(§6) Emulsifier: 2 parts by weight of alkylaryl polyglycolether
(§7) To produce a suitable preparation of active compound, 1 part by weight of active compound is mixed with the stated amount of solvent and emulsifier, and the concentrate is diluted with emulsifier-containing water to the desired concentration.
Cabbage leaves (Brassica oleracea) are treated by being sprayed into the preparation of the active compound of the desired concentration and are infested with larvae of the diamondback moth (Plutella xylostella) as long as the leaves are still moist.
After the specified period of time, the mortality in % is determined. 100% means that all the caterpillars have been killed; 0% means that none of the caterpillars have been killed.

In assay [3] the test system is two spotted spidermites (Tetranychus urticae). As to the kind of experiment: Tetranychus urticae test (sprayed French bean leaves). As to the method:
as §5, §6, §7
French bean leaves (Phaseolus vulgaris) which are heavily infested with all stages of the two spotted spidermites (Tetranychus urticae) are treated by being sprayed into the preparation of the active compound of the desired concentration.
After the specified period of time, the mortality in % is determined. 100% means that all the spider mites have been killed; 0% means that none of the spider mites have been killed.

The test system of another assay is Septoria tritici. The assay is described as follows: Septoria tritici-test (wheat)/preventive. Conditions: preventive spray, evaluated 21 days after inoculation. Here is the method:
Septoria tritici-Test (Wheat)/Preventive
as §1, §2, §3, §4
After the spray coating has been dried, the plants are sprayed with a spore suspension of Septoria tritici. The plants remain for 48 hours in an incubation cabinet at approximately 20° C. and a relative atmospheric humidity of approximately 100% and afterwards for 60 hours at approximately 15° C. in a translucent incubation cabinet at a relative atmospheric humidity of approximately 100%.
The plants are placed in the greenhouse at a temperature of approximately 15° C. and a relative atmospheric humidity of approximately 80%.
The test is evaluated 21 days after the inoculation. 0% means an efficacy which corresponds to that of the control, while an efficacy of 100% means that no disease is observed.

Where [4] appears, read: 96 h, read-out: Mortality in % after 4d.
Setting [5] is: 48 h, after 2 d, read-out: Mortality in % after 2d.
[6] abbreviates: 96 h, after 4 d, read-out: Mortality in % after 4d.
Setting [7] is: 48 h, read-out: Mortality in % after 2d.

In the case of `Cc1cc(C)c(C2=C(OC(=O)CC(C)(C)C)C3(CCCC3)OC2=O)c(C)c1` [Spiromesifen, spiromesifen], the “Efficacy in % found” value in assay [1] (250 g/ha) is 38%. In assay [2] (setting [4]), the mortality (commonly the percentage killed) at 500 ppm came out at 25%. In addition, the mortality at 100 ppm in assay [3] (setting [4]) is 75%.

Turning to `N#Cc1ccccc1NC(=O)c1snc(Cl)c1Cl` [Isotianil, 3,4-dichloro-N-(2-cyanophenyl)-5-isothiazolecarboxamide], the “Efficacy in % found” value in assay [1] (1000 g/ha) is listed as 25%; in the assay with Septoria tritici (500 g/ha), 33%; in the assay with Septoria tritici (1000 g/ha), 33%. For the same compound, the mortality at 200 ppm is 5% in assay [2] (setting [5]), 5% in assay [2] (setting [6]), 0% in assay [3] (setting [5]) and 0% in assay [3] (setting [6]).

As for `O=[N+]([O-])/N=C1\NCCN1Cc1ccc(Cl)nc1` [Imidacloprid, imidacloprid], the “Efficacy in % found” value with Septoria tritici (500 g/ha) was found to be 22%. Further, the “Efficacy in % found” value with Septoria tritici (1000 g/ha) is given as 22%. For the same compound, in assay [2] (setting [7]), the mortality at 20 ppm stood at 0% and the mortality at 100 ppm was found to be 20%.

`CCC(C)(C)C(=O)OC1=C(c2ccc(Cl)cc2Cl)C(=O)OC12CCCCC2` [Spirodiclofen, spirodiclofen]: the “Efficacy in % found” value in assay [1] (250 g/ha) is reported as 13%; in the assay with Septoria tritici (250 g/ha) it was 22%. The mortality at 20 ppm in assay [2] (setting [4]) amounted to 15%; in assay [3] (setting [7]), 30%.

For the compound `CCOC(=O)OC1=C(c2cc(C)ccc2C)C(=O)N[C@]12CC[C@@H](OC)CC2` [Spirotetramat, spirotetramat], the “Efficacy in % found” value in the assay on Septoria tritici (250 g/ha) stood at 22%. Moreover, the mortality at 20 ppm in assay [2] (setting [7]) is 20%; in assay [3] (setting [4]) it was 55%.
